A short description of series [1]: Plasma protein binding (equilibrium dialysis), mouse. The series is classed as in vitro ADME. The conditions noted are these: pH 7.4, 37° C. How it is done:
Below is provided the procedure for measuring plasma protein binding (using an equilibrium dialysis method). 745 μL of plasma was transferred into a 2 ml micro centrifuge tube. To that 5 μL of Compound A1 (150 μM) was added. Samples were mixed in the table top vortexer for 2 minutes. 50 μL plasma (n=2) was transferred in a pre-labeled 1.5 mL micro centrifuge tube treated as 0 hour sample.
The remaining 650 μL plasma sample were incubated for 30 minutes at 37° C. in a water bath. After 30 minute incubation, 50 μL plasma (n=2) was removed in a pre-labelled 1.5 mL micro centrifuge tube treated as 0.5 hour sample. 200 μL of the plasma sample (n=2) was transferred into the sample chamber which was indicated by the red ring. The red insert was placed into the base plate and 350 μL of buffer was transferred into the buffer chamber. Plates were incubated at 37° C. at approximately 100 RPM on an orbital shaker or 20 RPM on an up-and-down shaker for 4 hours. 50 μL of post dialysis-sample from the buffer and the plasma chambers were transferred into a pre-labelled micro centrifuged tube. 50 μL of plasma was added to the buffer samples and an equal volume of buffer (KH2PO4 Buffer pH 7.4) to the collected plasma samples. 150 μL of methanol containing internal standard (Tolbutamide 250 ng/ml) was added to precipitate the protein and release compound. […]
On the technique in general: In equilibrium dialysis only unbound substance equilibrates across the membrane.

Series [2] in a line: Oral pharmacokinetics in rats. Type of series: in vivo. The conditions noted are these: Rat, 10 mg/kg. The procedure: The oral bioavailability of Compound A1 (free base) was evaluated in rats and mice. The protocol for the pharmacokinetics studies in rat is provided below.
All animals were fasted overnight (12 hours) before dosing and continued till 4.0 hours after administration of test item. Test item formulations were prepared in 1% Tween 80 and 99% media (0.5% Methyl cellulose, 4000cPs, pH 2.2). The blood samples (150 μL from each animal) were collected from the orbital sinus, and placed into a micro centrifuge tube containing disodium EDTA as an anticoagulant. Blood samples were centrifuged immediately with a speed of 1000 g for 10 min at 4° C. and separated plasma samples were frozen at below −80° C. and stored until analysis. The concentrations of test item in all formulations were analyzed by HPLC. The plasma concentrations of test item in all samples were analyzed by LC-MS/MS. Pharmacokinetic parameters (Cmax, AUC0-t, Tmax, and t^1/2) were estimated by using WinNonlin software. Results are provided in Table 3 for Compound A, A1, and Example 128 of WO 2012/151525 in rats and Compound A1 in mice.

The target of series [3] is PI3Kβ (Homo sapiens, UniProt P42338). Description: Assay 1: Fluorescent (HTRF) determination of PI3 kinase enzyme activity, PI3Kβ. The series is classed as biochemical. An excerpt:
Phosphoinositide 3 kinases (PI3K) belong to a class of lipid kinases that play a critical role in the regulation of several key cellular processes. The PI3K are capable of phosphorylating the 3-hydroxy position of phosphoinositols thereby generating second messengers involved in downstream signaling events. The homogenous time resolved fluorescence (HTRF) assay allows detection of 3,4,5-triphosphate (PIPS) formed as a result of phosphorylation of phosphotidylinositol 4,5-biphosphate (PIP2) by PI3K isoforms such as α, β, γ or δ.
PI3K isoform activity for α, β, γ or δ was determined using a PI3K human HTRF™ Assay Kit (Millipore, Billerica, Mass.) with modifications. All incubations were carried out at room temperature. 0.5 μl of 40× inhibitor (in 100% DMSO) or 100% DMSO were added to each well of a 384-well white plate (Greiner Bio-One, Monroe, N.C.) containing 14.5 μl 1× reaction buffer/PIP2 (10 mM MgCl2, 5 mM DTT, 1.38 μM PIP2) mix with or without enzyme, followed by 5 μl/well of 400 μM ATP and incubated for an additional 30 minutes. The reaction was terminated by adding 5 μl/well stop solution (Millipore, Billerica, Mass.). 5 μl of detection mix (Millipore, Billerica, Mass.) was then added to each well and incubated for 6-18 hours in the dark. HRTF ratio was measured on a microplate reader (BMG Labtech., Germany) at an excitation wavelength of 337 nm and emission wavelengths of 665 and 615 nm with an integration time of 400 msec counting delay of 50 msec.
(In general: TR-FRET usually uses a lanthanide donor and a delayed reading to cut background.)

Series [4] deals with human whole blood B-cell proliferation (CD19). In words: Assay 6B: Inhibition of LPS induced CD19 in human whole blood. Type of series: cell-based. Particulars: diluted human whole blood, 72 hours, read-out: EC50, inhibition of LPS-induced human whole blood B-cell proliferation (CD19 expression). The procedure:
The effect of Compound A1 on modulating B-cell receptor (BCR)-activated proliferation of human or mouse B-lymphocytes was determined. CD19 is a protein present on B cells from the earliest recognizable B-lineage cells during development to B-cell blasts but is however lost on maturation to plasma cells. LPS is an endotoxin and a major component of environmental microbes with a potent mitogenic activity on B-cells via the […].
Diluted human whole blood was treated with DMSO or desired concentrations of Compound A1. Samples were induced with LPS 15 minutes after addition of compound and incubated for 72 hours at 37° C. and 5% CO2. Cells positive for CD45 and CD19 were determined by flow cytometry and data are expressed as percentage CD19 positive cells in the total population.

These results are taken from patent US20190202836A1, “SELECTIVE DUAL INHIBITORS OF PI3 DELTA AND GAMMA PROTEIN KINASES” (Rhizen Pharmaceuticals SA, priority 2014, published 2019).

As usually defined, the fraction unbound is free concentration divided by total concentration. Higher therefore signals weak binding. What is called AUC(0-t) is exposure summed from dosing to a finite time, without extrapolation to infinity. One may read the Cmax as the highest concentration seen after dosing. One may read the Tmax as the time at which the peak concentration occurs. A word on the half-life: it is how long it takes for the measured level to halve. The low end stands for fast loss, the high end for slow loss. One may read the inhibition as the share of the control response that was lost under treatment. Usually IC50 stands for the point on the concentration scale where inhibition reaches its midpoint. Low readings indicate greater potency, high ones weaker potency.

PI3Kβ, sequence (P42338 whole entry, canonical isoform): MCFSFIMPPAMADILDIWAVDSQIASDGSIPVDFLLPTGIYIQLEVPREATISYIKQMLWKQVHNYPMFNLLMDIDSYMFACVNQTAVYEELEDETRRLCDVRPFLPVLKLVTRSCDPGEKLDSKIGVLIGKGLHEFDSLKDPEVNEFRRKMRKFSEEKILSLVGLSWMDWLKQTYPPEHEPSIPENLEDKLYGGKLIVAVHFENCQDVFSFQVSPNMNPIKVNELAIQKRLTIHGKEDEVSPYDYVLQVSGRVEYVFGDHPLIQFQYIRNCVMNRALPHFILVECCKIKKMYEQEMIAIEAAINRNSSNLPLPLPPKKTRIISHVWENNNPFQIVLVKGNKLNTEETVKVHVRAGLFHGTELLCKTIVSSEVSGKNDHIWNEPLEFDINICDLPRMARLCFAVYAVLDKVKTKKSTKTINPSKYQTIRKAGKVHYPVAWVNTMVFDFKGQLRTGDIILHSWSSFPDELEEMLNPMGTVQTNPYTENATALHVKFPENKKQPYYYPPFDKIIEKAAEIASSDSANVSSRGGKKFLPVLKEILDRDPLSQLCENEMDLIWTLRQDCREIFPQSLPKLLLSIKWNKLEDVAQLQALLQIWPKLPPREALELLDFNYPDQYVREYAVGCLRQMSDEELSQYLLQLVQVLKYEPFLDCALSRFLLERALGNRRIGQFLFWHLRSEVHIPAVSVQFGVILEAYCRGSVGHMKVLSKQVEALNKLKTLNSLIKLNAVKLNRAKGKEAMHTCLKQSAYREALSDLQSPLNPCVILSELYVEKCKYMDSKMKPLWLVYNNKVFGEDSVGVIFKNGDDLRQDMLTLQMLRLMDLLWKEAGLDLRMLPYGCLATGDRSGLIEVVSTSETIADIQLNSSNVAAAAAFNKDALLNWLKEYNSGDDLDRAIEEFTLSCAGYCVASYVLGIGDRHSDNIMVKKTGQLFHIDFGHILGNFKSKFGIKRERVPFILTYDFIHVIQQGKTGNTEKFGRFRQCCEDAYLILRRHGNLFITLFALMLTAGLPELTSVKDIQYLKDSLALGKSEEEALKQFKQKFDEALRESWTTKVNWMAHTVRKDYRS
PI3Kβ, sequence (P27986 whole entry partner, canonical isoform): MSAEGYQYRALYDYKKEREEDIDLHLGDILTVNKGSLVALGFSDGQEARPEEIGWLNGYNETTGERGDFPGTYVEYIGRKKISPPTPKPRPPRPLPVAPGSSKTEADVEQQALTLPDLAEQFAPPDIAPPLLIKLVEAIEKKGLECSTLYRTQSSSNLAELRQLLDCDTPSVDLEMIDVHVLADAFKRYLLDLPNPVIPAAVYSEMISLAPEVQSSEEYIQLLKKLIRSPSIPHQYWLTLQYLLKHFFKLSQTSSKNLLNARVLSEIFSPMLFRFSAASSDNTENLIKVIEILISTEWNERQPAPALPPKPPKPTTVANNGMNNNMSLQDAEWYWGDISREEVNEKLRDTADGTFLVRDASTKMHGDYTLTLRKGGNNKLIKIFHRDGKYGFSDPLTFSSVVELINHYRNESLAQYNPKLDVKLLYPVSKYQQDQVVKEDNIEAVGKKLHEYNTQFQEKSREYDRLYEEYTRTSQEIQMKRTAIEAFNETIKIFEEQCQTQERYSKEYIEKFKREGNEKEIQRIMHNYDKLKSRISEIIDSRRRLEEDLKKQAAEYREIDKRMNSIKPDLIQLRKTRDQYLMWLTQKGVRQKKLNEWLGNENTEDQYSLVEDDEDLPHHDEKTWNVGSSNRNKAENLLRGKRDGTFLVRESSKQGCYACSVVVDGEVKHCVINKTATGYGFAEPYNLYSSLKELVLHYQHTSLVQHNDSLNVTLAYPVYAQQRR

The compound `COc1ccc(-c2nn([C@@H](C)c3oc4cccc(F)c4c(=O)c3-c3cccc(F)c3)c3ncnc(N)c23)cc1NS(C)(=O)=O` [Compound A1, (S)—N-(5-(4-amino-1-(1-(5-fluoro-3-(3-fluorophenyl)-4-oxo-4H-chromen-2-yl)ethyl)-1H-pyrazolo[3,4-d]pyrimidin-3-yl)-2-methoxyphenyl)methanesulfonamide] gave a fraction unbound at 4 h, 1 μM in series [1] of 0.0239. Moreover, in series [2], the “fold increase in AUC0-t as compared to Example 128 of WO 2012/151525” value worked out at 48 fold, the “fold increase in Cmax as compared to Example 128 of WO 2012/151525” value was around 16 fold and the “fold increase in t1/2 as compared to Example 128 of WO 2012/151525” value is recorded as around 1.6 fold. For the same compound, in series [2] (plasma), the AUC(0-t) stood at 97.8 µM·h, the Cmax came to 11.4 µM, the Tmax was 1.83 h and the half-life was 2.45 h. In series [3], this compound had an inhibition at 1 µM of 46.8%. For the same compound, in series [3] (HTRF enzyme assay), the midpoint of inhibition, the IC50, lay at 1360 nM. Also, the “Fold-Selectivity PI3Kβ” value in series [3] (selectivity profile, enzyme IC50) is given as above 45 fold. Besides, in series [4], the EC50 is 118 nM.
